US20250255857A1, “METHODS OF TREATING ANDROGEN RECEPTOR-INDEPENDENT PROSTATE CANCER” (FOGHORN THERAPEUTICS INC., priority 2022, published 2025)

Experiments:
[1] = tested on: LNCaP prostate xenograft tumors; experiment: LNCaP prostate xenograft tumor model, tumor growth inhibition; assay type: in vivo, mice
Protocol: (§1) Procedure: The experimental details of the studies, including tumor model, mouse strain, cell number implanted, vehicle used, days of treatment, treatment details, and average tumor size at start of dosing are outlined in Table 1. All study mice were purchased from Beijing Anikeeper Biotech and Matrigel was utilized as a basement membrane for all xenograft models. All xenografts were engrafted subcutaneously in the right flank region. The vehicles and Compound 1 (3 mg/kg) were administered twice weekly (BIW) intraperitoneally and enzalutamide (30 mg/kg) was administered orally once daily (QD), when applicable. Tumor volumes and body weights were measured over the course of study, and doses were adjusted by body weight to achieve the proper dose in terms of mg/kg.

[2] = tested on: VCaP prostate xenograft tumors; experiment: VCaP prostate xenograft tumor model (Example 1), tumor growth inhibition; assay type: in vivo, mice; conditions: VCaP CDX model, AR V7+; 30 mg/kg QD oral
Protocol: as §1

[3] = tested on: C42B prostate xenograft tumors; experiment: C42B prostate xenograft tumor model, tumor growth inhibition; assay type: in vivo, mice; conditions: C42B CDX model, AR+; 30 mg/kg QD oral
Protocol: as §1

[4] = tested on: 22Rv1 prostate xenograft tumors; experiment: 22Rv1 prostate xenograft tumor model, tumor growth inhibition; assay type: in vivo, mice
Protocol: as §1

[5] = tested on: VCAP human prostate cancer tumor cells; experiment: VCaP CRPC CDX model in castrated mice (Example 6), tumor growth inhibition and tolerability; assay type: in vivo; conditions: castrated mice
Protocol: Procedure: The experimental details of the studies, including tumor model, mouse strain, cell number implanted, vehicle used, days of treatment, treatment details, and average tumor size at start of dosing are outlined in Table 7. All study mice were obtained and the studies were conducted at Pharmaron. Each mouse was inoculated subcutaneously on the right flank with the single cell suspension of VCAP human prostate cancer tumor cells (1×10^7) in 0.1 mL with Matrigel (1:1) in DMEM medium with 10% FBS for tumor development. The mice were castrated by removing the testes via a scrotal approach when the tumor volume reached 270 mm^3. After castration, the tumor volume decreased. Treatment started when the mean tumor volume grew back 265 mm^3. Based on tumor volume, mice were randomly assigned to respective groups using a computer-generated randomization procedure and treated according to the study design in Table 8.

[6] = VCAP CRPC model, Enzalutamide at 30 mg/kg PO QD, 25 days
[7] = VCAP CRPC model, Enzalutamide at 30 mg/kg PO QD, 25 days, Day 57

CNC(=O)c1ccc(N2C(=S)N(c3ccc(C#N)c(C(F)(F)F)c3)C(=O)C2(C)C)cc1F [enzalutamide, reference compound]
TGI with Enzalutamide 30 mg/kg ([1]; LNCaP CDX model, AR+, 30 mg/kg QD oral): 92.1%
tumor growth inhibition (TGI), in words ([1]; LNCaP xenograft, Compound 1 3 mg/kg BIW IP, enzalutamide 30 mg/kg QD oral): did lead to tumor growth inhibition
TGI with Enzalutamide 30 mg/kg [2]: 46.8%
TGI with Enzalutamide 30 mg/kg [3]: 68.5%
TGI with Enzalutamide 30 mg/kg ([4]; 22RV1 CDX model, AR V7+, 30 mg/kg QD oral): 40.3%
TGI ([4]; 22Rv1 CDX model, Compound 1 3 mg/kg BIW IP, enzalutamide 30 mg/kg QD oral): 40.3%
Tumor Growth % on Day 57 [5, 6]: 238 ± 9%
Tumor Size on Day 57 [5, 6]: 626 ± 28 mm3
T/C [5, 7]: 76.7%
TGI [5, 7]: 23.3%
TGI ([5]; VCaP CRPC model, Compound 1 10 mg/kg, enzalutamide 30 mg/kg, day 57 after tumor inoculation): 23.3%
